Reference: patent US20180325947A1, “USE OF MAPK INHIBITORS TO REDUCE LOSS OF HEMATOPOIETIC STEM CELLS DURING EX VIVO CULTURE AND/OR GENETIC MANIPULATION” (Children's Hospital Medical Center, priority 2015, published 2018)
“Also recorded” adds a separate entry of the source.

What was measured:
[1] = test system: human HSCs (CD34+ 38- 90+ 45RA- 49f+); assay: percent phenotypic hHSC in ex vivo cultured CD34+ cells, flow cytometry; assay type: cell-based; settings: for percent hHSCs ex vivo in culture: ex vivo culture up to 72 hours
Experimental: Four different p38 inhibitors all increase the percent hHSCs ex vivo in culture studies up to 72 hours.
Human CD34^+ cells were cultured and transduced as described in FIG. 13, panel A. Harvested cells were stained with trypan blue for viability, total CD34+ cell number (Panel A), fold change in percent human CD34^+ 38^− 90^+ 45RA^− 49f^+ (HSCs) (Panel B), percent annexin V^+ (apoptotic) CD34^+38^− 90^+ cells (Panel C), fold change in transduction efficiency (based on GFP marker percentage) over non-treated CD34^+38^− 90^+ cells (Panel D), fold change in MitoSOX MFI in CD34^+38^− 90^+ cells are shown (Panel E). Data represents mean±SEM. Statistics: Student's t test, […], *p<0.05, **p<0.01, ***p<0.001.

[2] = test system: human HSC long term repopulating potential; assay: secondary transplant (2T) in NSG mice, long term repopulating potential (LTRP); assay type: in vivo; settings: for secondary engraftment potential / long term repopulating potential (LTRP): 2T NSG mice, 6 weeks, inhibitor present during ex vivo culture, all time points; for number of 2T mice with human cell engraftment (>0.01% hCD45+ cells in BM): 6 weeks post-secondary transplant
Experimental: (§1) FIG. 2. A preclinical model for studying adult human HSC ex vivo manipulation and gene transfer and its effect on LTRP. (Panel A) Freshly isolated or thawed mobilized peripheral blood (MPB) derived CD34+ cells were utilized for the study. Two different protocols were utilized for the study where lentivirus (LV) or γ-Retrovirus (RV) mediated gene transfer was performed at indicated time points. 0 h, 18-24 h, 36-42 h, and 72-96 h indicates the total amount of time where cells were exposed in the ex vivo culture after CD34 isolation before injection into NSG mice. (Panel B) After indicated time in culture and transduction, 1 million CD34+ starting equivalent cells were transplanted per NSG mouse after TBI intravenously (primary transplant=1T). Primary human engraftment and multi-lineage reconstitution was analyzed in mice at indicated time periods after bone marrow harvest at 6 and 12 weeks (wks) from left and right femurs, and after sacrifice at 24 wks, from all bones. A portion of cells were analyzed for FACS and the rest were depleted of mouse CD45+ cells and transplanted one to one, into secondary mice (secondary transplant=2T).
Panel B: Number of 2T mice engrafted (>0.01% hCD45^+ cells in BM) are shown above the middle bar and those non-engrafted below.
Human MPB derived CD34^+ cells either fresh or thawed were cultured and transduced with lentivirus (LV) or retrovirus (RV) expressing GFP for the indicated time points. Cells were harvested and phospho-p38MAPK was detected by flow cytometry. Panel A: Representative histogram plot of p-p38 (number represents mean fluorescence intensity (MFI). Panel B: Fold change of p-p38 MAPK MFI (±SEM) in human CD34^+ 38^− 90^+ 45RA^− 49f^+ cells with or without p38 inhibitor (p38i). Panel C: Human CD45^+ engraftment in NSG mice with (striped bars) or without p38 inhibitor (solid bars) after 24 weeks of primary transplant. Panel D: Human engraftment in NSG mice with or without p38i after 6 weeks of secondary transplant. Engrafted mice (>0.01% CD45^+ cells in the whole bone marrow) over total mice transplanted is shown as percentage. Human CD33^+ myeloid (Panels E and F), CD19^+ B-Lymphoid (Panels G and H) and CD34^+ hematopoietic stem/progenitor cells (HSPCs) (Panels I and J) re-constitution with or without p38i (Panels E, G, and I): GFP^− untransduced; (Panels F, H & J): GFP^+ transduced in primary transplanted mice 24 weeks post transplantation are shown. Data expressed as mean±SEM from 5 independent experiments (n=12-21 mice per group). Statistics: Student's t test, *p<0.05, **p<0.01, ***p<0.001.
Engrafted mice (>0.01% CD45^+ cells in the whole bone marrow) are shown above the middle bar, engrafted/Total mice number is shown on the side. […] Data expressed as mean±SEM from 5 independent experiments (n=7-29 mice per group). […]

[3] = test system: human CD33+ myeloid, CD19+ B-lymphoid and CD34+ HSPC progeny; assay: multi-lineage reconstitution (myeloid skewing) in 1T NSG mice 24 weeks post transplantation; assay type: in vivo
Experimental: as §1
Human MPB derived CD34^+ cells either fresh or thawed were cultured and transduced with lentivirus (LV) or retrovirus (RV) expressing GFP for the indicated time points. Cells were harvested and phospho-p38MAPK was detected by flow cytometry. […] Data expressed as mean±SEM from 5 independent experiments (n=12-21 mice per group). […]
Next, the multi-lineage reconstitution was analyzed at 6, 12 and 24 weeks in BM of 1T animals, both of the untransduced (GFP^−) versus transduced (GFP^+) progeny. […]

Cc1ccc(-n2nc(C(C)(C)C)cc2NC(=O)Nc2ccc(OCCN3CCOCC3)c3ccccc23)cc1 [BIRB-796, 1-[5-tert-butyl-2-(4-methylphenyl)pyrazol-3-yl]-3-[4-(2-morpholin-4-ylethoxy)naphthalen-1-yl]urea]
human HSCs in vitro ([1]; at 400, 600 and 800 nm concentrations): appeared to increase
percent hHSCs ex vivo in culture [1]: significant increase
percent hHSCs ex vivo in culture ([1]; listed as p38i): increased
loss of stem cells during in vitro or ex vivo culture ([1]; stem cells having undergone genetic manipulation that induces a DNA double strand break): successfully reduced
secondary engraftment potential / long term repopulating potential (LTRP) [2]: retains
secondary engraftment potential / long term repopulating potential (LTRP) ([2]; listed as p38i): retain; also recorded: restores; also recorded: rescues
number of 2T mice with human cell engraftment (>0.01% hCD45+ cells in BM) [2]: significantly increase
number of 2T mice with human cell engraftment (>0.01% hCD45+ cells in BM) ([2]; listed as Birb796): increases
myeloid skewing phenotype (overall) ([3]; 1T mice 24 weeks post transplantation, listed as p38i): significantly revert this phenotype but only partially; also recorded: partially reverts
myeloid lineage skewing ([3]; 72-96 h RV group): some improvement
myeloid lineage skewing ([3]; HSPC transduced within the first 24 h with LV, cultures up to 72-96 h): restored to levels similar to untransduced cells or 0 h controls
